Measured values from patent US10758534B2 (Vertex Pharmaceuticals Incorporated, priority 2014, dated 2020).

Each molecule was assayed against T1, F508del (Homo sapiens, UniProt P13569, DEL508-508) (assay: Protocol 1: membrane potential optical assay (FLIPR III, voltage sensing dye), identification of potentiator compounds). Conditions: Table 3, compounds of Table 1.
T1 construct: expressed in transfected cells
Format: cell-based
Outline: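 NIH 3T3 fibroblasts stably expressing F508del were cultured at 27° C for 24 hrs for temperature correction, then treated with compounds or DMSO and loaded with a voltage-sensing redistribution dye. Forskolin added with a Cl⁻ gradient activated the channel; membrane-potential fluorescence on FLIPR III reported increased gating.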

T1 sequence (P13569 with tags, fused parts or gaps DEL508-508): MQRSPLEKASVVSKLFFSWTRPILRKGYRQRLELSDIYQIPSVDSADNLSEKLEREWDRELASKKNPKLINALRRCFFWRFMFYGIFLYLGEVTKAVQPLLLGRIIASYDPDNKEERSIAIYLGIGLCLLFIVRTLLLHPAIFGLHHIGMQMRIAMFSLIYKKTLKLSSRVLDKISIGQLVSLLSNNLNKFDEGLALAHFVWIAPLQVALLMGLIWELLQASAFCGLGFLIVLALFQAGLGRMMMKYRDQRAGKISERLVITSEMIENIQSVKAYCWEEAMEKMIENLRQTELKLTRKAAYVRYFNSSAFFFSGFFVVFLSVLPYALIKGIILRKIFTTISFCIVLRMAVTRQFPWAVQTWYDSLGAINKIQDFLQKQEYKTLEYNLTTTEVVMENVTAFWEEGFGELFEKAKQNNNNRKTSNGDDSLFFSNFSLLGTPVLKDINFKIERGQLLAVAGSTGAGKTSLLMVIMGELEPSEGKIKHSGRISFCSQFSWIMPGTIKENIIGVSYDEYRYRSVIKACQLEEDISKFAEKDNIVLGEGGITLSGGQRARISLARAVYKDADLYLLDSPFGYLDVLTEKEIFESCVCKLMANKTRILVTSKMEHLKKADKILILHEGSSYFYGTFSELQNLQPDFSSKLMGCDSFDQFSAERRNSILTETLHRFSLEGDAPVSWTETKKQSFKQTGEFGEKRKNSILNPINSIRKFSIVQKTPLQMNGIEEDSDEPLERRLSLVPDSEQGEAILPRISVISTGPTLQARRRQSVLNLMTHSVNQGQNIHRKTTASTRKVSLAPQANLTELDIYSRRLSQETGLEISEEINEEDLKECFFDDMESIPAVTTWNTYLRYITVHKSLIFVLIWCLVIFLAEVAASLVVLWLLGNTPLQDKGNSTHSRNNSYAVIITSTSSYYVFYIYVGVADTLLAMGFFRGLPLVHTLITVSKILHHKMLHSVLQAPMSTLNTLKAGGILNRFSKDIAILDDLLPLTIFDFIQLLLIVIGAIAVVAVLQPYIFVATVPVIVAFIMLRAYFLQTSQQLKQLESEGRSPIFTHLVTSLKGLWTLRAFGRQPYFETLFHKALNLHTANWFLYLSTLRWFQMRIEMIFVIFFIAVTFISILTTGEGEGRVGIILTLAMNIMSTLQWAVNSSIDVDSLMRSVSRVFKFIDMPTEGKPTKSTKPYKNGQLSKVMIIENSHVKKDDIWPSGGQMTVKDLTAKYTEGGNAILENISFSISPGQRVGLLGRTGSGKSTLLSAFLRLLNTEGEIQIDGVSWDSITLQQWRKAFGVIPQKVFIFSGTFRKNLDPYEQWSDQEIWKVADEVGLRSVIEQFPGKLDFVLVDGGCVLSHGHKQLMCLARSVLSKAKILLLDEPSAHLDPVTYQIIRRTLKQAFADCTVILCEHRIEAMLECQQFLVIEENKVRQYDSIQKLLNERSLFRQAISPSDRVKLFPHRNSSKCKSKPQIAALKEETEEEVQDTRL

| SMILES | EC30 |
| --- | --- |
| CC(=O)N1CC=C(c2ccc(C(=O)NS(=O)(=O)c3cccc(N)n3)c(Oc3c(C)cc(C)cc3C)n2)CC1 [Compound 1649, 6-(1-acetyl-3,6-dihydro-2H-pyridin-4-yl)-N-[(6-amino-2-pyridyl)sulfonyl]-2-(2,4,6-trimethylphenoxy)pyridine-3-carboxamide] | ++ (“++” means between 3 uM and 10 uM) |
| CC(C)Oc1ccc(-c2ccc(C(=O)NS(=O)(=O)c3cccc(N)n3)c(N3C4CCC3CC4)n2)cn1 [Compound 903, N-[(6-amino-2-pyridyl)sulfonyl]-2-(7-azabicyclo[2.2.1]heptan-7-yl)-6-(6-isopropoxy-3-pyridyl)pyridine-3-carboxamide] | ++ (“++” means between 3 uM and 10 uM) |
| CC(C)COc1cc(F)cc(-c2nc(N3C[C@@H](C)CC3(C)C)ccc2C(=O)NS(=O)(=O)c2cccc(N)n2)c1 [Compound 1409, N-[(6-amino-2-pyridyl)sulfonyl]-2-(3-fluoro-5-isobutoxy-phenyl)-6-[(4S)-2,2,4-trimethylpyrrolidin-1-yl]pyridine-3-carboxamide] | +++ (“+++” means <3 uM) |
| C[C@@H]1CN(c2nc(C3CCOCC3)ccc2C(=O)NS(=O)(=O)c2cccnc2N)C(C)(C)C1 [Compound 1850, N-[(2-amino-3-pyridyl)sulfonyl]-6-tetrahydropyran-4-yl-2-[(4S)-2,2,4-trimethylpyrrolidin-1-yl]pyridine-3-carboxamide] | +++ (“+++” means <3 uM) |
| CCOc1ccc(-c2ccc(C(=O)NS(=O)(=O)c3nccnc3N)c(-c3ccc(C)cc3)n2)cc1 [Compound 819, N-(3-aminopyrazin-2-yl)sulfonyl-6-(4-ethoxyphenyl)-2-(p-tolyl)pyridine-3-carboxamide] | + (“+” means greater than 10 uM) |
| CCOc1cccc2c1CN(Cc1ccc(C(C)C)cc1)C2(C)C(=O)NS(=O)(=O)c1cccc(N)n1 (stereo not shown) [Compound 1576, N-[(6-amino-2-pyridyl)sulfonyl]-4-ethoxy-2-[(4-isopropylphenyl)methyl]-1-methyl-isoindoline-1-carboxamide] | +++ (“+++” means <3 uM) |
| C[C@@H]1CN(c2nc(C(C)(C)C)c(C(O)C(O)C3CCCCC3)cc2C(=O)NS(=O)(=O)c2cccc(N)n2)C(C)(C)C1 (stereo partly shown) [Compound 1846] | +++ (“+++” means <3 uM) |
| CCOc1cccc2c1CN(Cc1c(C)cc(C)cc1C)C2(C)C(=O)NS(=O)(=O)c1ccc(N)nc1 (stereo not shown) [Compound 1413, N-[(6-amino-3-pyridyl)sulfonyl]-4-ethoxy-1-methyl-2-[(2,4,6-trimethylphenyl)methyl]isoindoline-1-carboxamide] | +++ (“+++” means <3 uM) |
| CC(C)COc1cc(F)cc(-c2ccc(C(=O)NS(=O)(=O)N3CCCC(C)(NC(=O)OC(C)(C)C)C3)c(N3CC(C)CC3(C)C)n2)c1 (stereo not shown) [Compound 1520, tert-butyl N—[1-[[6-(3-fluoro-5-isobutoxy-phenyl)-2-(2,2,4-trimethylpyrrolidin-1-yl)pyridine-3-carbonyl]sulfamoyl]-3-methyl-3-piperidyl]carbamate] | +++ (“+++” means <3 uM) |
| CC1CN(c2nc(C(C)(C)C)c(C3=CCC(C(=O)O)CC3)cc2C(=O)NS(=O)(=O)c2cccc(N)n2)C(C)(C)C1 (stereo not shown) [Compound 1381, 4-[5-[(6-amino-2-pyridyl)sulfonylcarbamoyl]-2-tert-butyl-6-(2,2,4-trimethylpyrrolidin-1-yl)-3-pyridyl]cyclohex-3-ene-1-carboxylic acid] | ++ (“++” means between 3 uM and 10 uM) |
| CC(C)=Cc1ccc(C(=O)NS(=O)(=O)c2cccc(N)n2)c(N2C[C@@H](C)CC2(C)C)n1 [Compound 1683, N-[(6-amino-2-pyridyl)sulfonyl]-6-(2-methylprop-1-enyl)-2-[(4S)-2,2,4-trimethylpyrrolidin-1-yl]pyridine-3-carboxamide] | +++ (“+++” means <3 uM) |
| CC(C)COc1cc(F)cc(-c2ccc(C(=O)NS(=O)(=O)c3cccc(N)n3)c(N3CC4CCCC4C3)n2)c1 (stereo not shown) [Compound 857, 2-(3,3a,4,5,6,6a-hexahydro-1H-cyclopenta[c]pyrrol-2-yl)-N-[(6-amino-2-pyridyl)sulfonyl]-6-(3-fluoro-5-isobutoxy-phenyl)pyridine-3-carboxamide] | +++ (“+++” means <3 uM) |
| CCOc1ccc(-c2ccc(C(=O)NS(=O)(=O)c3cccc(N)n3)c(Oc3c(C)cc(C)cc3C)n2)cn1 [Compound 1185, N-[(6-amino-2-pyridyl)sulfonyl]-6-(6-ethoxy-3-pyridyl)-2-(2,4,6-trimethylphenoxy)pyridine-3-carboxamide] | +++ (“+++” means <3 uM) |
| CC(C)Oc1ccn(-c2ccc(C(=O)NS(=O)(=O)c3cccc(N)n3)c(N3C[C@@H](C)CC3(C)C)n2)n1 [Compound 1709, N-[(6-amino-2-pyridyl)sulfonyl]-6-(3-isopropoxypyrazol-1-yl)-2-[(4S)-2,2,4-trimethylpyrrolidin-1-yl]pyridine-3-carboxamide] | +++ (“+++” means <3 uM) |
| Cc1ccc(C)c(-c2ccc(C(=O)NS(=O)(=O)c3ccc[nH]c3=O)c(N3C[C@@H](C)CC3(C)C)n2)c1 [Compound 1990, 6-(2,5-dimethylphenyl)-N-[(2-oxo-1H-pyridin-3-yl)sulfonyl]-2-[(4S)-2,2,4-trimethylpyrrolidin-1-yl]pyridine-3-carboxamide] | +++ (“+++” means <3 uM) |
| CC(C)COc1cc(F)cc(-c2ccc(C(=O)NS(=O)(=O)c3cccc(=O)[nH]3)c(N3CC(C)CC3(C)C)n2)c1 (stereo not shown) [Compound 1308, 6-(3-fluoro-5-isobutoxy-phenyl)-N-[(6-oxo-1H-pyridin-2-yl)sulfonyl]-2-(2,2,4-trimethylpyrrolidin-1-yl)pyridine-3-carboxamide] | +++ (“+++” means <3 uM) |
| Cc1cc(OC(C)C)nc(-c2ccc(C(=O)NS(=O)(=O)c3cccc(N)n3)c(N3C[C@@H](C)CC3(C)C)n2)c1 [Compound 1637, N-[(6-amino-2-pyridyl)sulfonyl]-6-(6-isopropoxy-4-methyl-2-pyridyl)-2-[(4S)-2,2,4-trimethylpyrrolidin-1-yl]pyridine-3-carboxamide] | +++ (“+++” means <3 uM) |
| C[C@@H]1CN(c2nc(-c3ccc(F)cc3F)ccc2C(=O)NS(=O)(=O)N2CC[C@H](N)C2)C(C)(C)C1 [Compound 1947, N-[(3S)-3-aminopyrrolidin-1-yl]sulfonyl-6-(2,4-difluorophenyl)-2-[(4S)-2,2,4-trimethylpyrrolidin-1-yl]pyridine-3-carboxamide] | ++ (“++” means between 3 uM and 10 uM) |
| CC(C)COc1cc(F)cc(-c2ccc(C(=O)NS(=O)(=O)c3cccc(N)n3)c(N3CC4CC(C4)C3)n2)c1 [Compound 1529, N-[(6-amino-2-pyridyl)sulfonyl]-2-(3-azabicyclo[3.1.1]heptan-3-yl)-6-(3-fluoro-5-isobutoxy-phenyl)pyridine-3-carboxamide] | +++ (“+++” means <3 uM) |
| Cc1cc(C)c(Oc2ncc(-c3ccccc3C(C)(C)C)cc2C(=O)NS(=O)(=O)c2cccc(N)n2)c(C)c1 [Compound 868, N-[(6-amino-2-pyridyl)sulfonyl]-5-(2-tert-butylphenyl)-2-(2,4,6-trimethylphenoxy)pyridine-3-carboxamide] | +++ (“+++” means <3 uM) |
| Cc1ccc(-c2nc3c(cc2C(=O)NS(=O)(=O)c2cccc(N)c2)CCCC3(C)C)cc1 [Compound 1231, (3-aminophenyl)sulfonyl-[8,8-dimethyl-2-(p-tolyl)-6,7-dihydro-5H-quinoline-3-carbonyl]azanide] | +++ (“+++” means <3 uM) |
| Cc1cc(C)c(Oc2nc(-c3ccnn3C)ccc2C(=O)NS(=O)(=O)c2cccc(N)n2)c(C)c1 [Compound 1057, N-[(6-amino-2-pyridyl)sulfonyl]-6-(2-methylpyrazol-3-yl)-2-(2,4,6-trimethylphenoxy)pyridine-3-carboxamide] | + (“+” means greater than 10 uM) |
| CCOc1cccc2c1CN(Cc1ccccc1C)C2(C)C(=O)NS(=O)(=O)c1cccc(N)n1 (stereo not shown) [Compound 1408, N-[(6-amino-2-pyridyl)sulfonyl]-4-ethoxy-1-methyl-2-(o-tolylmethyl)isoindoline-1-carboxamide] | +++ (“+++” means <3 uM) |
| CC(C)COc1cc(F)cc(-c2ccc(C(=O)NS(=O)(=O)c3cccc(N)n3)c(N3C[C@H]4CC[C@@H]3C4)n2)c1 [Compound 924, N-[(6-amino-2-pyridyl)sulfonyl]-2-[(1S,4R)-3-azabicyclo[2.2.1]heptan-3-yl]-6-(3-fluoro-5-isobutoxy-phenyl)pyridine-3-carboxamide] | +++ (“+++” means <3 uM) |
| CC(C)=C(C)c1cnc(N2CC(C)CC2(C)C)c(C(=O)NS(=O)(=O)c2cccc(N)n2)c1 (stereo not shown) [Compound 1590, N-[(6-amino-2-pyridyl)sulfonyl]-5-(1,2-dimethylprop-1-enyl)-2-(2,2,4-trimethylpyrrolidin-1-yl)pyridine-3-carboxamide] | +++ (“+++” means <3 uM) |
| C[C@@H]1CN(c2nc(-n3ccc(OCC(C)(C)C)n3)ccc2C(=O)NS(=O)(=O)c2cccc(N)n2)C(C)(C)C1 [Compound 1952, N-[(6-amino-2-pyridyl)sulfonyl]-6-[3-(2,2-dimethylpropoxy)pyrazol-1-yl]-2-[(4S)-2,2,4-trimethylpyrrolidin-1-yl]pyridine-3-carboxamide] | +++ (“+++” means <3 uM) |
| CC1CN(c2ncccc2C(=O)NS(=O)(=O)c2cccc(O[C@H](C)c3ccccc3)n2)C(C)(C)C1 (stereo partly drawn) [Compound 1842, N—[[6-[(1R)-1-phenylethoxy]-2-pyridyl]sulfonyl]-2-(2,2,4-trimethylpyrrolidin-1-yl)pyridine-3-carboxamide] | +++ (“+++” means <3 uM) |
| CC(C)CS(=O)(=O)N1CCC=C(c2ccc(C(=O)NS(=O)(=O)c3cccc(N)n3)c(N3C[C@@H](C)CC3(C)C)n2)C1 [Compound 1882, N-[(6-amino-2-pyridyl)sulfonyl]-6-(1-isobutylsulfonyl-3,6-dihydro-2H-pyridin-5-yl)-2-[(4S)-2,2,4-trimethylpyrrolidin-1-yl]pyridine-3-carboxamide] | + (“+” means greater than 10 uM) |
